# Source: patent US4333926A, “Steryl-β-D-glucoside pharmaceutical compositions and use” (Nippon Shinyaku Co., Ltd., priority 1979, dated 1982)
# Like-named read-outs stand apart in the source and are kept apart here.
# Experiments:
# [1] = test system: pulmonary hemorrhage under reduced pressure; experiment: Vascular stabilization: pulmonary hemorrhage in mice under reduced pressure (Table 6; vascular stability summary table); type: in vivo; conditions: for ED50: Mus musculus, iv, read-out: Vascular stability ED50; for ED50 (pulmonary hemorrhage): reduced pressure 50±0.5 mm Hg/15 sec
# Protocol: For example, the following tables summarize the vascular stabilizing effect (described in detail below).
# The surprising vascular stabilizing effect of these compounds can also be shown in a number of recognized models of which the following are typical.
# The degree of pulmonary homorrhage in mice under reduced pressure of 50±0.5 mm Hg/15 sec was assessed by the scoring method, the ED50 of each compound being calculated from the ratio of inhibiting rate for treated animals over that for the control group according to the method of G. J. Mojovski et al., J. Pharmacol. Exp. Therap. 80, 1, 1944.
# [2] = test system: increased vascular permeability caused by histamine; experiment: Increased vascular permeability caused by histamine, rabbit; type: in vivo; conditions: 100 mg/kg, i.p.
# Protocol: (§1) The inhibitory effect on increased vascular permeability caused by intracutaneous administration of histamine, hyaluronidase, lecithinase A and formalin is also correlated to vascular stabilization. This parameter was measured by the dye leakage method with the inhibitory effect of each test drug expressed in terms of inhibiting rate over the control according to the methods of Benditt et al., Proc. Soc. Biol. Med. 75 782 1950 and Orary et al., J. Exp. Med. 117, 951, 1963.
# [3] = test system: hemorrhages induced by vesical mucosal resection; experiment: Hemorrhage induced by vesical mucosal resection (Dermaut et al.); type: in vivo, dogs; conditions: 5 mg/kg i.v.
# [4] = test system: increased vascular permeability induced by hyaluronidase; experiment: Increased vascular permeability induced by hyaluronidase, rabbit; type: in vivo; conditions: 100 mg/kg, i.p.
# Protocol: as §1
# [5] = test system: bleeding from punctured ear vein; experiment: Inhibitory effect on bleeding from ear vein (Duke); type: in vivo, rabbits; conditions: 10 mg/kg i.v., 3 hours after administration
# Excerpt: The hemostatic effect can also be observed by measuring the inhibitory effect on bleeding from ear vein in rabbits.
# [6] = test system: increased vascular permeability induced by hyaluronidase; experiment: Increased vascular permeability induced by hyaluronidase, rat; type: in vivo; conditions: 100 mg/kg, i.p.
# Protocol: as §1
# [7] = test system: gastric mucosal hemorrhaging induced by electroshock; experiment: Gastric mucosal hemorrhage induced by electroshock (Danno et al.); type: in vivo, rats
# [8] = test system: increased vascular permeability induced by lecithinase A; experiment: Increased vascular permeability induced by lecithinase A; type: in vivo, rabbits; conditions: 100 mg/kg, i.p.
# Protocol: as §1
# [9] = test system: abdominal cutaneous vascular resistance; experiment: Abdominal cutaneous vascular resistance, petechia appearance under reduced pressure (Borbely et al.); type: in vivo, guinea-pigs; conditions: 100 mg/kg, s.c.; reduced pressure 250 to 260 mm Hg
# Excerpt: The effect on abdominal cutaneous vascular resistance in guinea-pigs can also be used as a model of vascular stabilization. The time of appearance of petechia in abdominal skin of guinea-pigs under reduced pressure of 250 to 260 mm Hg is used as the index, with the petechia appearance delaying effect of each test compound in comparison with the control being determined according to the method of V. Borbely et al., Munch.
# endotoxin shock = experiment: Endotoxin shock mortality (48 hours); type: in vivo
# Protocol: The mortality rate during the period of 48 hours following intravenous administration of 80% lethal dose (8 mg/kg) of endotoxin is observed with the effect of each compound being expressed as the ED50 (see Tanabe et al., Pharmacometrics Vol. 7 591, 1973).
# [10] = test system: passive systemic anaphylaxis; experiment: Passive systemic anaphylaxis lethality (Munoz et al.); type: in vivo, guinea-pigs
# Protocol: The preventive effect against passive systemic anaphylaxis was determined according to the method of Munoz et al., J. Immunol., 80, 77 (1958). An antigen of 80% lethal dose is intravenously administered to antiserum-sensitized guinea-pigs, and the resultant passive systemic anaphylaxis lethality is expressed as the inhibition rate as compared with the control group.
# [11] = test system: increased vascular permeability caused by histamine; experiment: Increased vascular permeability caused by histamine, rat; type: in vivo; conditions: 100 mg/kg, i.p.
# Protocol: as §1
# [12] = test system: local hemorrhage induced by snake venom (Naja Naja cobra); experiment: Local hemorrhage induced by snake venom; type: in vivo, rats
# Protocol: The inhibitory effect of SG and SGP on local hemorrhage induced by abdominal intracutaneous administration of snake venom (Naja Naja cobra) in rats was determined in terms of inhibiting rate against untreated control rats.
# Arthus reaction = experiment: Arthus reaction, increased vascular permeability (Benacerral et al.); type: in vivo, guinea-pigs; conditions: 100 mg/kg, i.p.; 5 hours after provocation
# Protocol: Increased vascular permeability five hours after provocation of reaction is measured as the leakage of hemoglobin according to the method of Benacerral et al., J. Immunol.
# [13] = test system: increased vascular permeability induced by formalin; experiment: Increased vascular permeability induced by formalin; type: in vivo, rabbits; conditions: 100 mg/kg, i.p.
# Protocol: as §1
# [14] = test system: bleeding from amputated tail tip; experiment: Hemostatic effect, bleeding from amputated tail tip (Motohashi et al.); type: in vivo, mice
structure (smiles),measurement,setting,value
CC(C)[C@H](C)CC[C@@H](C)[C@H]1CC[C@H]2[C@@H]3CC=C4C[C@@H](O[C@@H]5O[C@H](CO)[C@@H](O)[C@H](O)[C@H]5O)CC[C@]4(C)[C@H]3CC[C@]12C [Campesteryl-β-D-glucoside],ED50,[1],2.4 mg/kg
CN1C2=CC(=O)/C(=N\NC(N)=O)C=C2CC1S(=O)(=O)[O-].[Na+] (centres unmarked) [Carbazochrome sodium sulfonate],ED50 (pulmonary hemorrhage),[1]; i.p.,112.0 mg/kg
same,ED50 (pulmonary hemorrhage),[1]; i.v.,80.0 mg/kg
same,ED50 (pulmonary hemorrhage),[1]; p.o.,400.0 mg/kg
same,% Inhibition,[2],29.6%
same,% Inhibition (bleeding),[3],39.9%
same,% Inhibition,[4],4.7%
same,% Reduction (time of bleeding),[5],20.0%
same,% Inhibition,[6],-4.5%
same,electroshock hemorrhage arresting effect,[7]; dose of 200 mg/kg,no noticeable effect
same,ED50 (inhibiting gastric mucosal hemorrhage),"[7]; s.c., electroshock 100-200 V, 3 times/min., 24 hours",> 200.0 mg/kg
same,% Inhibition,[8],10.8%
same,Prolongation Rate (test group/control group),[9],1.7
same,effect on endotoxin shock,endotoxin shock; doses of less than 200 mg/kg,no niticeable effect
same,ED50 (endotoxin shock),"endotoxin shock; i.p., endotoxin 80% lethal dose (8 mg/kg) i.v., 48 hours",> 200.0 mg/kg
same,inhibitory effect against death from endotoxin-shock,endotoxin shock; in vivo,far inferior in effect to SG and SGP
same,% Inhibition (PSA lethality),"[10]; 100 mg/kg, i.p., antigen 80% lethal dose i.v.",20%
same,effect on passive systemic anaphylaxis,[10]; dose of 100 mg/kg,only very slight effects
same,% Inhibition,[11],32.7%
same,inhibitory effect against hemorrhagic action of snake venom,[12]; 100 mg/kg,only slight effects
same,% Inhibition (local hemorrhage),[12]; 100 mg/kg i.p.,9.1%
same,% Inhibition (Arthus reaction),Arthus reaction,26.3%
same,% Inhibition,[13],0.4%
same,ED50 (hemostatic effect),[14]; i.p.,5.4 mg/kg
same,ED50 (hemostatic effect),[14]; i.v.,3.6 mg/kg
same,ED50 (hemostatic effect),[14]; p.o.,36.0 mg/kg
CC(C)CCC[C@@H](C)[C@H]1CC[C@H]2[C@@H]3CC=C4C[C@@H](O[C@@H]5O[C@H](CO)[C@@H](O)[C@H](O)[C@H]5O)CC[C@]4(C)[C@H]3CC[C@]12C [Cholesteryl-β-D-glucoside],ED50,[1]; summary table by compound,1.8 mg/kg
CC[C@H](/C=C/[C@@H](C)[C@H]1CC[C@H]2[C@@H]3CC=C4C[C@@H](O[C@@H]5O[C@H](CO)[C@@H](O)[C@H](O)[C@H]5O)CC[C@]4(C)[C@H]3CC[C@]12C)C(C)C [Stigmasteryl-β-D-glucoside],ED50,[1]; summary table by compound,2.33 mg/kg
CC[C@H](CC[C@@H](C)[C@H]1CC[C@H]2[C@@H]3CC=C4C[C@@H](O[C@@H]5O[C@H](CO)[C@@H](O)[C@H](O)[C@H]5O)CC[C@]4(C)[C@H]3CC[C@]12C)C(C)C [β-sitosteryl-β-D-glucoside],ED50,[1]; summary table by compound,1.48 mg/kg
